What was measured:
Test in all cases: relative viability (nuclei count vs DMSO), 5 days (fraction); higher = more cells survive
201T = system: 201T
In short: (§1)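 Lung cancer cell lines, seeded in 1536-well plates, were treated the following day by pin tool with a single drug or with five library-drug doses (not always all listed) in √10 steps on top of a fixed anchor-drug dose. Cells were fixed and nuclei stained in one step after 5 days, and nuclei were counted. Relative viability is the nuclei count for treated wells divided by that for vehicle wells, reported as medians of duplicate plates.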

COR-L23 = system: COR-L23
In short: as §1

EPLC-272H = system: EPLC-272H
In short: as §1

H3255 = system: H3255
In short: as §1

HCC-15 = system: HCC-15
In short: as §1

LOU-NH91 = system: LOU-NH91
In short: as §1

NCI-H1563 = system: NCI-H1563
In short: as §1

NCI-H1650 = system: NCI-H1650
In short: as §1

NCI-H1734 = system: NCI-H1734
In short: as §1

NCI-H1793 = system: NCI-H1793
In short: as §1

NCI-H2023 = system: NCI-H2023
In short: as §1

NCI-H2170 = system: NCI-H2170
In short: as §1

NCI-H2347 = system: NCI-H2347
In short: as §1

NCI-H2405 = system: NCI-H2405
In short: as §1

NCI-H3122 = system: NCI-H3122
In short: as §1

NCI-H322M = system: NCI-H322M
In short: as §1

NCI-H441 = system: NCI-H441
In short: as §1

NCI-H520 = system: NCI-H520
In short: as §1

NCI-H647 = system: NCI-H647
In short: as §1

PC-14 = system: PC-14
In short: as §1

SW 900 = system: SW 900
In short: as §1

UMC-11 = system: UMC-11
In short: as §1

For `O=c1cc(-c2cccc3c2Sc2ccccc2S3)oc(N2CCOCC2)c1` + N=C(N)NC(=N)NCCc1ccccc1 [Phenformin] (partner 250 µM), the relative viability (201T; first compound 0.08 µM) was 0.445, the relative viability (201T; first compound 0.253 µM) was 0.545 and the relative viability (201T; first compound 0.8 µM) was 0.423. For the same molecule, the relative viability (201T; first compound 2.53 µM) was 0.427, the relative viability (201T; first compound 8 µM) was 0.498 and the relative viability (COR-L23; first compound 0.08 µM) was 0.478. It also gave a relative viability (COR-L23; first compound 0.253 µM) of 0.484, a relative viability (COR-L23; first compound 0.8 µM) of 0.511 and a relative viability (COR-L23; first compound 2.53 µM) of 0.459. The relative viability (COR-L23; first compound 8 µM) was 0.545, the relative viability (EPLC-272H; first compound 0.08 µM) was 0.247 and the relative viability (EPLC-272H; first compound 0.253 µM) was 0.333. For the same molecule, the relative viability (EPLC-272H; first compound 0.8 µM) was 0.318, the relative viability (EPLC-272H; first compound 2.53 µM) was 0.254 and the relative viability (EPLC-272H; first compound 8 µM) was 0.255. It also gave a relative viability (H3255; first compound 0.08 µM) of 0.323, a relative viability (H3255; first compound 0.253 µM) of 0.393 and a relative viability (H3255; first compound 0.8 µM) of 0.339. For the same molecule, the relative viability (H3255; first compound 2.53 µM) was 0.338, the relative viability (H3255; first compound 8 µM) was 0.39 and the relative viability (HCC-15; first compound 0.08 µM) was 0.394. For the same molecule, the relative viability (HCC-15; first compound 0.253 µM) was 0.608, the relative viability (HCC-15; first compound 0.8 µM) was 0.468 and the relative viability (HCC-15; first compound 2.53 µM) was 0.472. It also gave a relative viability (HCC-15; first compound 8 µM) of 0.503, a relative viability (LOU-NH91; first compound 0.08 µM) of 0.611 and a relative viability (LOU-NH91; first compound 0.253 µM) of 0.675. It also gave a relative viability (LOU-NH91; first compound 0.8 µM) of 0.658, a relative viability (LOU-NH91; first compound 2.53 µM) of 0.6 and a relative viability (LOU-NH91; first compound 8 µM) of 0.741. For the same molecule, the relative viability (NCI-H1563; first compound 0.08 µM) was 0.626, the relative viability (NCI-H1563; first compound 0.253 µM) was 0.689 and the relative viability (NCI-H1563; first compound 0.8 µM) was 0.617. The relative viability (NCI-H1563; first compound 2.53 µM) was 0.633, the relative viability (NCI-H1563; first compound 8 µM) was 0.611 and the relative viability (NCI-H1650; first compound 0.08 µM) was 0.379. For the same molecule, the relative viability (NCI-H1650; first compound 0.253 µM) was 0.561, the relative viability (NCI-H1650; first compound 0.8 µM) was 0.434 and the relative viability (NCI-H1650; first compound 2.53 µM) was 0.263. For the same molecule, the relative viability (NCI-H1650; first compound 8 µM) was 0.365, the relative viability (NCI-H1734; first compound 0.08 µM) was 0.36 and the relative viability (NCI-H1734; first compound 0.253 µM) was 0.45. For the same molecule, the relative viability (NCI-H1734; first compound 0.8 µM) was 0.417, the relative viability (NCI-H1734; first compound 8 µM) was 0.436 and the relative viability (NCI-H1793; first compound 0.08 µM) was 0.344. For the same molecule, the relative viability (NCI-H1793; first compound 0.253 µM) was 0.398, the relative viability (NCI-H1793; first compound 0.8 µM) was 0.347 and the relative viability (NCI-H1793; first compound 2.53 µM) was 0.306. The relative viability (NCI-H1793; first compound 8 µM) was 0.279, the relative viability (NCI-H2023; first compound 0.08 µM) was 0.401 and the relative viability (NCI-H2023; first compound 0.253 µM) was 0.484. It also gave a relative viability (NCI-H2023; first compound 0.8 µM) of 0.476, a relative viability (NCI-H2023; first compound 2.53 µM) of 0.362 and a relative viability (NCI-H2023; first compound 8 µM) of 0.44. For the same molecule, the relative viability (NCI-H2170; first compound 0.08 µM) was 0.427, the relative viability (NCI-H2170; first compound 0.253 µM) was 0.444 and the relative viability (NCI-H2170; first compound 0.8 µM) was 0.431. The relative viability (NCI-H2170; first compound 2.53 µM) was 0.319, the relative viability (NCI-H2170; first compound 8 µM) was 0.444 and the relative viability (NCI-H2347; first compound 0.08 µM) was 0.541. For the same molecule, the relative viability (NCI-H2347; first compound 0.253 µM) was 0.501, the relative viability (NCI-H2347; first compound 0.8 µM) was 0.416 and the relative viability (NCI-H2347; first compound 2.53 µM) was 0.279. It also gave a relative viability (NCI-H2347; first compound 8 µM) of 0.362, a relative viability (NCI-H2405; first compound 0.08 µM) of 0.354 and a relative viability (NCI-H2405; first compound 0.253 µM) of 0.372. It also gave a relative viability (NCI-H2405; first compound 0.8 µM) of 0.45, a relative viability (NCI-H2405; first compound 2.53 µM) of 0.385 and a relative viability (NCI-H2405; first compound 8 µM) of 0.415. For the same molecule, the relative viability (NCI-H3122; first compound 0.08 µM) was 0.38, the relative viability (NCI-H3122; first compound 0.253 µM) was 0.418 and the relative viability (NCI-H3122; first compound 0.8 µM) was 0.376. It also gave a relative viability (NCI-H3122; first compound 2.53 µM) of 0.36, a relative viability (NCI-H3122; first compound 8 µM) of 0.398 and a relative viability (NCI-H322M; first compound 0.08 µM) of 0.738. For the same molecule, the relative viability (NCI-H322M; first compound 0.253 µM) was 0.764, the relative viability (NCI-H322M; first compound 0.8 µM) was 0.742 and the relative viability (NCI-H322M; first compound 2.53 µM) was 0.632. It also gave a relative viability (NCI-H322M; first compound 8 µM) of 0.688, a relative viability (NCI-H441; first compound 0.08 µM) of 0.854 and a relative viability (NCI-H441; first compound 0.253 µM) of 1.2. It also gave a relative viability (NCI-H441; first compound 0.8 µM) of 0.895, a relative viability (NCI-H441; first compound 2.53 µM) of 0.903 and a relative viability (NCI-H441; first compound 8 µM) of 0.904. It also gave a relative viability (NCI-H520; first compound 0.08 µM) of 0.505, a relative viability (NCI-H520; first compound 0.253 µM) of 0.507 and a relative viability (NCI-H520; first compound 0.8 µM) of 0.479. The relative viability (NCI-H520; first compound 2.53 µM) was 0.372, the relative viability (NCI-H520; first compound 8 µM) was 0.619 and the relative viability (NCI-H647; first compound 0.08 µM) was 0.572. It also gave a relative viability (NCI-H647; first compound 0.253 µM) of 0.838, a relative viability (NCI-H647; first compound 0.8 µM) of 0.547 and a relative viability (NCI-H647; first compound 2.53 µM) of 0.476. It also gave a relative viability (NCI-H647; first compound 8 µM) of 0.487, a relative viability (PC-14; first compound 0.08 µM) of 0.553 and a relative viability (PC-14; first compound 0.253 µM) of 0.479. For the same molecule, the relative viability (PC-14; first compound 0.8 µM) was 0.54, the relative viability (PC-14; first compound 8 µM) was 0.746 and the relative viability (SW 900; first compound 0.08 µM) was 0.645. It also gave a relative viability (SW 900; first compound 0.253 µM) of 0.627, a relative viability (SW 900; first compound 0.8 µM) of 0.441 and a relative viability (SW 900; first compound 2.53 µM) of 0.567. For the same molecule, the relative viability (SW 900; first compound 8 µM) was 0.597, the relative viability (UMC-11; first compound 0.08 µM) was 0.322 and the relative viability (UMC-11; first compound 0.253 µM) was 0.34. For the same molecule, the relative viability (UMC-11; first compound 0.8 µM) was 0.372, the relative viability (UMC-11; first compound 2.53 µM) was 0.29 and the relative viability (UMC-11; first compound 8 µM) was 0.324.

— the supplement of paper PMC10307832
